Patent US20110257014A1, “1-(Heteroaryl)pyrazol-4-ylacetic acids, processes for their preparation and their use as herbicides and plant growth regulators” (BAYER CROPSCIENCE AG, priority 2009, published 2011)

Assays:
Assay in all cases: Post-emergence herbicidal effect, greenhouse pot test
Format in all cases: in vivo
Settings in all cases: 0.32 kg of active substance per hectare, rated visually after about 3 weeks
Abutilon theophrasti = system: Abutilon theophrasti
Method: (§1) Seeds of monocotyledonous and dicotyledonous weed and crop plants are placed in sandy loam in wood-fiber pots, covered with soil and cultivated in a greenhouse under good growth conditions. 2 to 3 weeks after sowing, the test plants are treated at the one-leaf stage. The compounds (I) according to the invention, formulated in the form of wettable powders (WP), are then applied by spraying as aqueous suspension or emulsion at a water application rate of 600 I/ha (converted) with the addition of 0.2% of wetting agent to the green parts of the plants. After the test plants have been kept in the greenhouse under optimum growth conditions for about 3 weeks, the activity of the preparations is rated visually in comparison to untreated controls (herbicidal activity in percent (%): 100% activity=the plants have died, 0% activity=like control plants).

Echinochloa crus galli = system: Echinochloa crus galli
Method: as §1

Alopecurus myosuroides = system: Alopecurus myosuroides
Method: as §1

Avena fatua = system: Avena fatua
Method: as §1

Measured: herbicidal activity

COC(=O)Cc1c(C)nn(-c2cncn2C)c1-c1ccc(Cl)cc1 [Compound 5-1107, methyl [5-(4-chlorophenyl)-3-methyl-1-(1-methyl-1H-imidazol-5-yl)-1H-pyrazol-4-yl]acetate]
≥ 80%: all assays above
